Non-standard residues stand in square brackets, D forms with d. Residues, ends and D or L forms follow the SMILES beside them.
Experiments:
MDA-MB-231 cells [1] = conditions: Biotin-M1-21 20 µM, 4 h, cytosol and nuclear protein samples, Western blotting
[2] = tested on: FOXM1-binding promoters (6xFOXM1 binding sequence-containing promoter, − 1.8 kb promoter of CDC25B); assay: Dual luciferase reporter, FOXM1-binding promoters; conditions: HEK-293T, cotransfection with pCMV-FOXM1; M1-21 5, 10, 20 µM for 24 h; n = 3
β-catenin = β-catenin levels in cytosol and nuclear protein samples; conditions: MDA-MB-231, 20 µM for 6 h; Western blotting
[3] = tested on: spontaneous breast cancers; assay: Spontaneous breast cancer FVB/N MMTV-PyVT mice
TCF/LEF-binding promoter = assay: Dual luciferase reporter, TCF/LEF-binding promoter; conditions: HEK-293T; 5, 10, 20 µM for 24 h; n = 3
MDA-MB-231 cells [4] = assay: Wound Healing assay; conditions: MDA-MB-231, 10 µM for 36 h; versus M1-21mut; n = 3
[5] = target: interaction between FOXM1 and β-catenin (Homo sapiens, UniProt Q08050); assay: Co-IP in 231-Flag-FOXM1-Ind cells; conditions: 10, 20 µM for 6 h
MDA-MB-231 cells [6] = assay: Colony formation assay; conditions: MDA-MB-231, 200 cells/well, 20 µM, 14 days; versus M1-21mut
full-length FOXM1 = target: T1, full-length FOXM1 (Homo sapiens, UniProt Q08050); assay: Biotin-peptide Pulldown with Streptavidin Magnetic Beads; format: binding; conditions: biotin-labeled peptide, cell lysates (500 µg) with endogenous or exogenous FOXM1; Western Blotting
T1 sequence (Q08050 703-763 limits assumed): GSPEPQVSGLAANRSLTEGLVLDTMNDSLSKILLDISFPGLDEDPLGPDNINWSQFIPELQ
Description: SDS-PAGE gel electrophoresis and Coomassie brilliant blue staining were performed to measure peptide stability. […] Cells were collected at different post-treatment time points (0, 1, 2, 4, 8, 16, 24, 36, 48 h). […] D The docking of peptide P22 (106–126) to the FOXM1 C-terminus (PDB ID 6OSW) was created by Rosetta FlexPepDock and PyMOL. Left, the interface of peptide-protein interaction, the peptide was shown in cyan, and the C-terminus of FOXM1 was shown according to its electrostatic potential. Right, hydrogen bonds are formed by residues at the interface of peptide and protein interaction. […] Streptavidin magnetic beads were added to lysates to pull down the biotin-peptides/protein complexes. […] M1-21mut was used as the control.

[7] = target: T2, interaction between FOXM1 and PLK1 (Homo sapiens, UniProt Q08050); assay: Co-IP in 231-Flag-FOXM1-Ind cells; format: cell-based; conditions: doxycycline 200 ng/mL 24 h, M1-21 10, 20 µM or TAT-106-126 20, 40, 80 µM for 6 h
T2 construct: expressed in transfected cells; host or cells: MDA-MB-231 stably infected with pLVX-TetOne-Flag-FOXM1b lentivirus (231-Flag-FOXM1-Ind), doxycycline-induced
Text: Number of repetitions = 3. […] Number of repetitions = 3. […] Number of repetitions = 3. […] GAPDH was used as a loading control.

mouse erythrocytes = assay: Hemolysis assay; conditions: 800 µg/mL, mouse blood 10% (v/v) in normal saline, 37℃ for 3 h, absorbance 540 nm
Description: One week later, the animals’ different organs were harvested and subjected to tissue sectioning and H&E staining. Photos were taken by inverted microscope (400×, Nikon TE2000). […] The mice’s diet and activity were observed continuously for 14 days. […] Water and PBS were used as hemolysis positive and negative controls, respectively. The absorbance of the samples was measured at 540 nm and used to calculate the Hemolysis rate % = [(OD Sample - OD Negative) / (OD Positive - OD Negative)] × 100%. E Immunogenicity analysis of M1-21. […] Blood samples were collected from mice at different time points (Week 2 to Week 8) and the absorption of anti-M1-21 antibody in serum (1:1000 dilution) was measured by ELISA. HRP-conjugated anti-mouse IgG was used as an ELISA secondary antibody.
Hemolysis assays were performed with fresh mouse blood collected and dispersed in normal saline (NaCl 0.9%) at 10% (v/v). […] Sterile double distilled water and PBS were used as positive and negative controls, respectively. Immunogenicity of M1-21 was detected by ELISA in mice. […] Blood samples were collected from mice at different time points (Week 2 to Week 8). […] ELISA plates were washed twice with PBS and blocked with 3% bovine serum albumin for 2 h. […] Absorption was measured at 492 nm.

[8] = 20 mg/kg intraperitoneal once daily for 28 days, Day 29

T2 sequence (Q08050 1-748 isoform Q08050-2): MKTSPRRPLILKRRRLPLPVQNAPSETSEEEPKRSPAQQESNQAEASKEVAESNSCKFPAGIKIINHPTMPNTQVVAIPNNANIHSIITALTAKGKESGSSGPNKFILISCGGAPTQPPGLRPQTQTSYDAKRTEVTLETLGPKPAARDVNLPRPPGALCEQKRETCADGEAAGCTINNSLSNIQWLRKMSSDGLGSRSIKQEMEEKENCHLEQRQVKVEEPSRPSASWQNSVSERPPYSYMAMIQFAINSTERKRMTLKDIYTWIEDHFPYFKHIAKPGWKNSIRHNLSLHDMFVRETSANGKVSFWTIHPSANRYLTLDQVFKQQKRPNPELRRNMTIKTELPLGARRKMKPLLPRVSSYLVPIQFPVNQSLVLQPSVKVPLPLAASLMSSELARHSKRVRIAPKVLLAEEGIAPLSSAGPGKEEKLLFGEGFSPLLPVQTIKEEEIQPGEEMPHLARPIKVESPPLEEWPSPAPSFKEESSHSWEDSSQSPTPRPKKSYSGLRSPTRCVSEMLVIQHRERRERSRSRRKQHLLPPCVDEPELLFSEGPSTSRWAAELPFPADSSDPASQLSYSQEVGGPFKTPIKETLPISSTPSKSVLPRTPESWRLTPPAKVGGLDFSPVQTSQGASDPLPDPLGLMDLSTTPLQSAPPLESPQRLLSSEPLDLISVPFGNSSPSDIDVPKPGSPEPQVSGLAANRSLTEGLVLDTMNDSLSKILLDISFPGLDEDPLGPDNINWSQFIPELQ
Chain of interaction between FOXM1 and β-catenin (Q08050 1-748 isoform Q08050-2): as above

**Q.** How did the “distribution after entering cells” value (MDA-MB-231 cells [1]) turn out when CC[C@@H](C)[C@@H](NC(=O)[C@@H](CC(C)C)NC(=O)[C@H](NC(=O)[C@@H](CO)NC(=O)[C@@H](CS)NC(=O)CNC(=O)CNC(=O)[C@@H](C)NC(=O)[C@H]1CCCN1C(=O)[C@H](NC(=O)[C@@H](CCC(N)=O)NC(=O)[C@H]1CCCN1C(=O)[C@H]1CCCN1C(=O)CNC(=O)[C@@H](CC(C)C)NC(=O)[C@@H](CCCNC(=N)N)NC(=O)[C@H]1CCCN1C(=O)[C@@H](CCC(N)=O)NC(=O)[C@H](NC(=O)[C@H](N)CCC(N)=O)[C@H](C)O)[C@H](C)O)[C@H](C)CC)C(=O)N[C@H](Cc1ccccc1)C(=O)N[C@H](CCCNC(=N)N)C(=O)N[C@H](CCCNC(=N)N)C(=O)N[C@H](CCCNC(=N)N)C(=O)N[C@H](CCC(N)=O)C(=O)N[C@H](CCCNC(=N)N)C(=O)N[C@H](CCCNC(=N)N)C(=O)N[C@H](CCCCN)C(=O)N[C@H](CCCCN)C(=O)N[C@H](CCCNC(=N)N)C(=O)NCC(=O)O [M1-21] (H-[dQ][dT][dQ][dP][dR][dL]G[dP][dP][dQ][dT][dP][dA]GG[dC][dS][dI][dL][dI][dF][dR][dR][dR][dQ][dR][dR][dK][dK][dR]G-OH; N-terminus and C-terminus assumed) was run?
**A.** distributed in cytoplasm and nucleus

**Q.** What about the “FOXM1-mediated stimulation on FOXM1-binding promoters (luciferase)” value [2] of the same compound?
**A.** abrogated FOXM1-mediated stimulation

**Q.** What about the “β-catenin levels in cytoplasm and nucleus” value (β-catenin) of the same compound?
**A.** elevated levels of β-catenin in the cytoplasm and declined levels of β-catenin in the nucleus

**Q.** And the “mice with therapeutic benefit, of the seven treated” value [3, 8]?
**A.** six mice had obvious therapeutic benefits and even one mouse was cancer-free

**Q.** What about the “weight of total cancer tissue from each mouse” value [3, 8] of the same compound?
**A.** inhibited cancer progression

**Q.** And the “number of formed cancers” value ([3]; 20 mg/kg intraperitoneal once daily for 28 days, n = 7, versus PBS n = 4)?
**A.** dramatically decreased

**Q.** And the “levels of KI-67 and CDC25B in cancer sections (immunostaining)” value ([3]; 20 mg/kg once daily for 28 days)?
**A.** dramatically down-regulated

**Q.** And the “β-catenin-mediated stimulation on the TCF/LEF-binding promoter (luciferase)” value (TCF/LEF-binding promoter)?
**A.** abolished β-catenin-mediated stimulation

**Q.** What about the cell migration (MDA-MB-231 cells [4]) of the same compound?
**A.** inhibited

**Q.** What about the “interaction between FOXM1 and β-catenin (Co-IP)” value [5] of the same compound?
**A.** disrupted the interaction

**Q.** And the colony formation (MDA-MB-231 cells [6])?
**A.** inhibitory effects

**Q.** What about the “binding to full-length FOXM1 in Pulldown” value (full-length FOXM1) of the same compound?
**A.** bound

**Q.** What about the “interaction between FOXM1 and PLK1 (Co-IP)” value [7] of the same compound?
**A.** disrupted the interaction

**Q.** And the hemolysis to erythrocytes (mouse erythrocytes)?
**A.** very mild hemolysis

— publication PMC10286459 (Cell & Bioscience, 2023)
